Data published in US20250296953A1, “3,4-THIAZOLO-STEROIDS AND METHODS OF MAKING AND USING THE SAME” (Arkansas State University - Jonesboro, priority 2018, published 2025).

System: gliosarcoma (SF-539)
Experiment: NCI 60 five dose screen
Conditions: SF-539 (CNS Cancer), five dose; for CC50: read-out: LC50

Molecule	GI50	TGI	CC50
(1S,2R,13R,14S,18S)-7-(2,4-dimethylanilino)-2,18-dimethyl-6-thia-8-azapentacyclo[11.7.0.02,10.05,9.014,18]icosa-5(9),7,10-trien-17-one [IIa.14]	1.62 µM	3.08E−6	5.86 µM
C[C@]12CCc3nc(N)sc3C1=CC[C@@H]1[C@@H]2CC[C@]2(C)C(=NNC(N)=O)CC[C@@H]12 [IVb.1]	2.05 µM	5.23E−6	19.8 µM
